The values that follow come from patent US11760733B2, “Small molecule regulators of mitochondrial fusion and methods of use thereof” (Washington University, priority 2017, dated 2023).

Entries after “also recorded” stand apart in the source; their conditions may differ.

The test system of data set [1] is Mfn2 null MEFs. As to the kind of experiment: Mitochondrial elongation (aspect ratio) fusogenicity assay. The format is cell-based, mouse. The source says:
A cultured murine embryonic fibroblast assay system was used in which mitochondrial elongation (an increase in aspect ratio) reflects enhanced mitochondrial fusion.
A pharmacophore model was generated based on the interactions of HR1 and HR2 domains in the calculated structural model of Mfn2 in the closed conformation. The key features included hydrophobic interactions involving Mfn2 HR1: Val372 and Met376, and aromatic interactions and hydrogen bonding involving Mfn2 HR1 His380. […] A library comprising ˜14 million commercially available compounds was prepared in silico and evaluated using PHASE to fit these criteria. Top ranked hits were clustered, and filtered based on pharmacological properties using Qikprop. The top 55 (see TABLE 4) commercially available small molecules conforming to the model were selected for functional screening and purchased in 1 mg aliquots. Each compound was dissolved to a stock concentration of 10 mM in DMSO and applied to Mfn2 null MEFs overnight at a final concentration of 1 mM. […] Images were acquired by confocal microscopy. Each compound was scored for fusogenicity (see e.g., FIG. 24A) and % cell death (see e.g., FIG. 24B).
Wild-type MEFs were prepared from E10.5 c57/bl6 mouse embryos. […] MEFs were subcultured in DMEM (4.5 g/L glucose) plus 10% fetal bovine serum, 1× nonessential amino acids, 2 mM L-glutamine, 100U/ml penicillin and 100 ug/ml streptomycin.
Cells were excited with 408 nm (Hoechst), […] (MitoTracker Green and Calcein AM, GFP), or 637 nm (TMRE, MitoTracker Orange, Ethidium homodimer-1, and AF594-Dextran) laser diodes. For mitochondrial elongation studies mitochondrial aspect ratio (long axis/short axis) was calculated using automated edge detection and Image J software. Mitochondrial depolarization was calculated as % of green mitochondria visualized on MitoTracker Green and TMRE merged images, expressed as green/(green+yellow mitochondria)×100.

The nature of data set [2]: Liver microsome stability. The format is in vitro ADME, human. As to the method: (§1) Plasma protein binding was measured using equilibrium dialysis; % bound=(1−[free compound in dialysate]/[total compound in retentate])×100. Plasma stability of […] compound in clarified freeze-thawed plasma was assessed by LC-MS/MS of supernatants after protein precipitation; 120 min data are reported for studies including 0, 10, 30, 60, and 120 min. Microsome stability of […] compound in liver microsomes (0.5 mg/ml) after 0, 5, 10, 20, 30, 60 min. incubation was assessed by LC/MS/MS of reaction extracts.
A general note: Microsomes from liver hold many membrane-bound enzymes, among them those of drug oxidation.

Data set [3] in a line: Parallel artificial membrane permeability assay (PAMPA). Format: in vitro ADME. (In general: In PAMPA a lipid-coated filter parts donor from acceptor wells.)
For data set [4], the target named is P-gp/MDR1 (Homo sapiens, UniProt P08183). As to the kind of experiment: P-gp/MDR1 transport. The format is in vitro ADME.
P-gp/MDR1, sequence (P08183 whole entry, the tested form may be a part): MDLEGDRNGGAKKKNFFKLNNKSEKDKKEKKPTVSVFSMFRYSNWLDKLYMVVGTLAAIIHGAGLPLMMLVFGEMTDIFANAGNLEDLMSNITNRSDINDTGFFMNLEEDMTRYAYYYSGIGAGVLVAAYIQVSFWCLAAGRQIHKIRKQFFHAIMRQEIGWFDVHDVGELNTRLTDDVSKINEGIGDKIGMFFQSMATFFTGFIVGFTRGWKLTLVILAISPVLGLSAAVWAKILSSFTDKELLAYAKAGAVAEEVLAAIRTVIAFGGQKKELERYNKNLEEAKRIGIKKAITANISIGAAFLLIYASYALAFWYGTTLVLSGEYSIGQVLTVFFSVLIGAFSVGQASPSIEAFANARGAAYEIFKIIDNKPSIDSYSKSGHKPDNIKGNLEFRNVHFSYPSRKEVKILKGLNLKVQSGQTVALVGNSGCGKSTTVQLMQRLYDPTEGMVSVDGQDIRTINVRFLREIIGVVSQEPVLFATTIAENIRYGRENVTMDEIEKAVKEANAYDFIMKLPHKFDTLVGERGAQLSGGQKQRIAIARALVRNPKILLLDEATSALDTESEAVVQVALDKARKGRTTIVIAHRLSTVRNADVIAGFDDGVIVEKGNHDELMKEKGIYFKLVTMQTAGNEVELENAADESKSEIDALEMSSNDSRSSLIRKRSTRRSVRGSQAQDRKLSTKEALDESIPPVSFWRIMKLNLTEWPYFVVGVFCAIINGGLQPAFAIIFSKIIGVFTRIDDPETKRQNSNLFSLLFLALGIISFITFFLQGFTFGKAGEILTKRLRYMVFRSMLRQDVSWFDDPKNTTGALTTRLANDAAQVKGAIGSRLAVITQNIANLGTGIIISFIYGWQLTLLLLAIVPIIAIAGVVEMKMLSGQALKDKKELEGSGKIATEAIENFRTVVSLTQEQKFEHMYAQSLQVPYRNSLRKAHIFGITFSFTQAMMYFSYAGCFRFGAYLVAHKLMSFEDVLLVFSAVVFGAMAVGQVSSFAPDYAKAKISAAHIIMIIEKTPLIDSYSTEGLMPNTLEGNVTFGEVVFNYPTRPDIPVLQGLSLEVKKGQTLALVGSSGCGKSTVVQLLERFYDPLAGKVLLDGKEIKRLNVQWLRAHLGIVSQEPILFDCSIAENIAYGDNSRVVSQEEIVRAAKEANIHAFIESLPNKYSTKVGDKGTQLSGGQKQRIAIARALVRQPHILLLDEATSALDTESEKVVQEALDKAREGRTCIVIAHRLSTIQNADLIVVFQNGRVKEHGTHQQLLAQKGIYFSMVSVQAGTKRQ
Data set [5] can be described thus: Solubility of library compounds in DMSO stock. The format is physicochemical. As to conditions: stock concentration of 10 mM in DMSO. As to the method: A pharmacophore model was generated based on the interactions of HR1 and HR2 domains in the calculated structural model of Mfn2 in the closed conformation. The key features included hydrophobic interactions involving Mfn2 HR1: Val372 and Met376, and aromatic interactions and hydrogen bonding involving Mfn2 HR1 His380. […] A library comprising ˜14 million commercially available compounds was prepared in silico and evaluated using PHASE to fit these criteria. Top ranked hits were clustered, and filtered based on pharmacological properties using Qikprop. The top 55 (see TABLE 4) commercially available small molecules conforming to the model were selected for functional screening and purchased in 1 mg aliquots. Each compound was dissolved to a stock concentration of 10 mM in DMSO and applied to Mfn2 null MEFs overnight at a final concentration of […]. Eleven of the library members were not soluble in DMSO at the required concentration. The 44 fully soluble compounds were screened in groups of 6 at a time for cytotoxicity (calcein AM/ethidium homodimer staining; ThermoFisher LIVE/DEAD Assay cat # L3224) and fusogenicity (increase in mitochondrial aspect ratio; MitoTracker Orange staining) compared to cells treated overnight with […] of the parent HR1 367-384 mitofusin agonist peptide (positive control) or vehicle (DMSO). Images were acquired by confocal microscopy. Each compound was scored for fusogenicity (see e.g., FIG. 24A) and % cell death (see e.g., FIG. 24B). Pharmacophore model fit generally correlated with actual fusogenic activity (Pearson correlation coefficient r=0.214; see e.g., FIG. 24A, inset; TABLE 4).

The subject of data set [6] is CMT2A MFN2 T105M mice. As to the kind of experiment: In vivo sciatic nerve mitochondrial motility in CMT2A mice. Details: species or system mouse. As to conditions: IM 2 mg/kg twice, assessed 4 hours later. As for the experimental part: Sciatic nerve mitochondrial motility was measured 4 hours later. Results described in FIG. 58 are for 2 CMT2A mice per group.
For data set [7], the system named is MFN2 T105M sciatic nerves. As to the kind of experiment: Sciatic nerve axonal mitochondrial motility, agonist applied to nerve. As to conditions: MFN2 T105M mouse sciatic nerve. As to the method:
Sciatic nerves of 12-18 week old male or female MFN2 T105M mice were removed en bloc with the lumbar spine and axotomy at the tibial nerve, stained with TMEM ([…]) for 30 minutes in prewarmed Neurobasal Medium without phenol red (Thermo Fisher Scientific) at room temperature, washed, and maintained on the stage of a Nikon A1Rsi Confocal Microscope at 37 degrees C. for time-lapse confocal studies. Images were acquired with a 40× oil immersion objective at 1 frame every 5 or 10 seconds for sequential 10 minute periods. Mitofusin agonist chimera B-A/I was added after the first 10 minute imaging period (final concentrations of […]) and nerve axons imaged for another 40 minutes. Because there was no difference in mitochondrial trafficking or response to mitofusin agonist between male and female mice, the data were combined.

Data set [8] can be described thus: Solubility in 50 mM phosphate buffer pH 7.4. Format: physicochemical.
Data set [9] can be described thus: Plasma stability. Format: in vitro ADME. As for the experimental part:
as §1

Data set [10] relates to Mfn1/Mfn2 double null MEFs. As to the kind of experiment: Mitochondrial elongation in Mfn1/Mfn2 double null MEFs. The format is cell-based, mouse.
The subject of data set [11] is MFN2 Asp378 and Ala378 mutants. As to the kind of experiment: Mitochondrial fusion in cells expressing MFN2 Ser378 mutants. The format is cell-based, human. To be noted: phosphomimic Asp378 vs nonphosphorylatable Ala378. From the text:
On the basis of fluorescence resonance energy transfer (FRET) analysis of MFN2 labeled at the N and C termini, mitofusin agonists promoted an open MFN2 conformation favoring mitochondrial fusion, with a rank order paralleling that for HR2 binding and mitochondrial fusion (see e.g., FIG. 11G; compare to FIG. 11B and FIG. 11C), supporting allosteric activation.
Human Mfn2 Ser378 was mutated to Ala or Asp by site-directed mutagenesis using the QuikChange Lightning kit (Agilent Technologies Inc.) and primers: […]
Mfn2 and its mutants were sub-cloned into adenoviral vector Type 5 (dE1/E3) with RGD-fiber modification (Vector Biolabs) using BamHI/XhoI. All constructs were verified by Sanger DNA sequencing. Adeno-viral PINK1 was purchased from Vector Biolabs.

Data set [12] concerns the target T1, Mfn2 HR2 target peptide (Homo sapiens, UniProt O95140).
T1 construct: Gly linker (GGGG after the His tag)
T1 sequence (O95140 with tags, fused parts or gaps limits assumed): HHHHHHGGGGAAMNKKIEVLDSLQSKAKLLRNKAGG
As to the kind of experiment: HR1 peptide-HR2 target binding assay. To be noted: in vitro binding assay devoid of cellular kinases. From the text: The Mfn-derived fusion-promoting and -inhibiting mini-peptides (simulated to obtain the chemical Mfn agonists in TABLE 1 and TABLE 2) were modified from amino acid heptad repeats (HR) in the HR1 domain and predicted to interact with their counterparts in the carboxyl terminus HR2 domain within the Mfn stalk region (see e.g., FIG. 1, top panel). A high-throughput binding assay was designed whereby the target HR2 peptide sequences, modified to include amino terminal 6×His tags and Gly linkers, were bonded to Ni-chelate resin (20 μg/ml) and used as immobilized “receptor” for amino-FITC-tagged Mfn2 374-384 (agonist ligand) in which the Ser analogous to Ser378 was replaced with Asp to confer the negative charge essential for activity. For antagonist studies the ligand was amino-FITC-tagged Mfn2 406-418. The FITC peptide ligands are suspended at 1 mM in 30% DMSO, 70% water (to minimize spontaneous aggregation) and diluted into binding buffer (de-ionized water) to a final concentration of 25 μM in the presence or absence of competing compound. Dose-dependent loss of resin-bound FITC signal (485 nm excitation/538 nm emission) measured in a 96 well spectrofluorometer represents binding of compound to its HR2 target (see e.g., FIG. 10, FIG. 11). Either the ligand peptide or the receptor peptide can be modified to represent mutations, variations, or posttranslational modifications of Mfn2. […]
Target HR2 peptide sequence modified to include amino terminal 6×His tags and Gly linkers, were bonded to Ni-NTA resin (4.4 μg/ml) (Quiagen) and used as immobilized “receptor” for amino-FITC-tagged Mfn2 374-384 (ligand) in which the Ser analogous to Ser378 was replaced with Asp to confer the negative charge essential for activity. […] Resin-bound FITC signal (485 nm excitation/538 nm emission) measured in a 96 well spectrofluorometer (Spectramax M5e, Molecular Devices) represented binding to HR2 target. Competition binding isotherms were plotted and IC50 values calculated using Prism 7 (Graph Pad).

Consider `Cn1c(SCC(=O)Nc2sc3c(c2C(N)=O)CCC3)nnc1-c1ccccc1` [1-61, 2-{2-[(4-methyl-5-phenyl-4H-1,2,4-triazol-3-yl)sulfanyl]acetamido}-4H,5H,6H-cyclopenta[b]thiophene-3-carboxamide], for which the “potency relative to other compounds, in words” value in data set [1] is “more potent”. Moreover, in data set [2], the “liver microsome stability, in words” value is “greater resistance to liver microsomal degradation”.
Take `CCn1c(SCC(=O)Nc2sc3c(c2C(N)=O)CCC3)nnc1C1CC1` [1-G11, 2-{2-[(5-cyclopropyl-4-ethyl-4H-1,2,4-triazol-3-yl)sulfanyl]acetamido}-4H,5H,6H-cyclopenta[b]thiophene-3-carboxamide]: the “potency relative to other compounds, in words” value in [1] is recorded as “more potent”. In addition, in [2], the “liver microsome stability, in words” value is reported as “greater resistance to liver microsomal degradation”.
Regarding `CCn1c(CCCNC(=O)NC2CCOCC2)nnc1C1CC1` [Mitolityn-4, 1-(3-(5-cyclopropyl-4-ethyl-4H-1,2,4-triazol-3-yl)propyl)-3-(tetrahydro-2H-pyran-4-yl)urea], the “potency relative to other compounds, in words” value in [1] is listed as “highest potency”. In addition, the “liver microsome stability, in words” value in [2] was “stability in the liver microsome assay”. Also, the “passive diffusion across lipid-infused artificial membrane (PAMPA), in words” value in [3] is reported as “no passive diffusion across lipid membrane”. Moreover, the “P-gp/MDR1 transport, in words” value in [4] is listed as “no reverse transport by P-gp”.
Consider `Cn1c(CCCNC(=O)NC2CCOCC2)nnc1C1CC1` [Mitolityn-6, 1-(3-(5-cyclopropyl-4-methyl-4H-1,2,4-triazol-3-yl)propyl)-3-(tetrahydro-2H-pyran-4-yl)urea], for which the “potency relative to other compounds, in words” value in data set [1] was “highest potency”. In addition, in data set [2], the “liver microsome stability, in words” value is given as “stability in the liver microsome assay”.
For the compound `CCc1nnc(SC(CC)C(=O)N(CC)c2cccc(C)c2)c2cc3occc3n12` (stereo not drawn) [N-ethyl-2-({12-ethyl-5-oxa-1,10,11-triazatricyclo[6.4.0.0^2,^6]dodeca-2(6),3,7,9,11-pentaen-9-yl}sulfanyl)-N-(3-methylphenyl)butanamide], the “Solubility in DMSO” value in data set [5] is reported as “Insoluble”.
Turning to `O=C(NCCCc1nnc(C2CC2)n1-c1ccccc1)NC1CCOCC1` [Regeneurin-C/O, 1-(3-(5-cyclopropyl-4-phenyl-4H-1,2,4-triazol-3-yl)propyl)-3-(tetrahydro-2H-pyran-4-yl)urea], the “sciatic nerve axon mitochondrial motility in vivo” value in data set [6] is listed as “corrects CMT2A neuronal mitochondrial dymotility in vivo; also recorded: reverses the characteristic mitochondrial immobility in sciatic nerve axons”.
As for `CC1CCCCC1NC(=O)NCCSc1nnc(C2CC2)n1-c1ccccc1` (stereo not drawn) [Regeneurin-S], the “sciatic nerve axonal mitochondrial motility” value in [7] is on record as “rapidly correct mitochondrial dysmotility”. Also, the “solubility, in words” value in data set [8] is recorded as “soluble”. In addition, the “plasma stability, in words” value in data set [9] was “stable in plasma”. The “liver microsome stability, in words” value in [2] is reported as “rapid degradation; also recorded: rapidly degraded by liver microsomes”.
On to `CC1CCCCC1NC(=O)NCCSCc1ccccc1` (stereo not drawn) [compound A, 1-[2-(benzylsulfanyl)ethyl]-3-(2-methylcyclohexyl)urea], for which the “fusogenic activity (mitochondrial elongation), in words” value in data set [1] is on record as “induced mitochondrial elongation”. Further, the “mitochondrial elongation in absence of both mitofusins” value in [10] is on record as “did not occur”. Besides, the “selectivity of fusogenic effect for MFN2 Ser378 mutants” value in [11] is reported as “specific for the Asp^378 mutant”.
For the compound “Ala^378 minipeptide: MFN2 374-384 minipeptide in which "Ser^378 was substituted (with Ala, Cys, Asn or Gly)": the Ala variant (LIMDALHMAAR; UniProt O95140 374-384, looked up, variant S378A)”, in data set [12], the “binding of minipeptide to HR2 interacting domain” value is given as “did not”.
For “Ser^378 minipeptide: "smallest fusion promoting minipeptide (residues 374 to 384)" of MFN2 HR1, with unsubstituted Ser^378 (LIMDSLHMAAR; UniProt O95140 374-384, looked up, fragment)”, the “binding of minipeptide to HR2 interacting domain” value in [12] is listed as “did not”.
